Assay results taken from patent US20150010928A1, “MEANS AND METHODS FOR ASSESSING AN ENDOCRINE DISEASE OR DISORDER” (priority 2012, published 2015).
Marks after values point to notes of the source that are not given here.

Test system: female rats
Test: Plasma metabolite profiling (GC-MS, LC-MS, SPE-LC-MS) in female rats dosed once daily over 28 days (OECD 407)
Format: in vivo, rat
Parameters: key to TAG No 07 / Lysophosphatidylcholine (C17:0): ratio of treated group mean to untreated control group mean; key to 5-O-Methylsphingosine (d18:1) / Isopalmitic acid (C16:0) / Valine / Alanine / Ketoleucine / Serine / Lactate / Arginine: ratio of treated group mean to untreated control mean
Settings: high dose; for Isopalmitic acid (C16:0): Table 17a; for Alanine / Arginine / Ketoleucine / Lactate / Proline / Serine / Valine: Table 17b; for 3-O-Methylsphingosine (d18:1) / 5-O-Methylsphingosine (d18:1) / 16-Methylheptadecanoic acid / Arachidonic acid (C20:cis[5,8,11,14]4) / Ceramide (d18:1, C24:1) / Ceramide (d18:1,C24:0) / Cholesterol / Cholesterolester No 01 / Dodecanol / Elaidic acid (C18:trans[9]1) / Galactose, lipid fraction / Glycerol phosphate, lipid fraction / Heptadecanoic acid (C17:0) / Lignoceric acid (C24:0) / Lysophosphatidylcholine (C17:0) / Phosphate, lipid fraction / Phosphatidylcholine (C18:0, C20:3) / Phytosphingosine / Sphingomyelin (d18:1, C16:0) / Sphingomyelin (d18:1,C24:0) / Sphingomyelin (d18:2, C16:0) / Sphingomyelin (d18:2,C18:0) / Stearic acid (C18:0) / TAG No 07 / Tricosanoic acid (C23:0) / alpha-Tocopherol / beta-Sitosterol / erythro-Sphingosine (d18:1) / myo-Inositol, lipid fraction / myo-Inositol-2-phosphate, lipid fraction / threo-Sphingosine (d18:1): Table 13b
Description: Each dose group in the studies consisted of five rats per sex. Additional groups of each 5 male and female animals served as controls. […] All animals of the animal population were kept under the same constant temperature (20-24±3° C.) and the same constant humidity (30-70%). The animals of the animal population were fed ad libitum. The food to be used was essentially free of chemical or microbial contaminants. Drinking water was also offered ad libitum. Accordingly, the water was free of chemical and microbial contaminants as laid down in the European Drinking Water Directive 98/83/EG. The illumination period was 12 hours light followed by 12 hours darkness (12 hours light, from 6:00 to 18:00, and 12 hours darkness, from 18:00 to 6:00). […] The test substances (compounds) in the Tables 1 to 17 below were dosed and administered as described in the Table 18.
In the morning of day 7, 14, and 28, blood was taken from the retroorbital venous plexus from fasted anaesthetized animals. From each animal, 1 ml of blood was collected with EDTA as anticoagulant. The samples were centrifuged for generation of plasma. All plasma samples were covered with a N2 atmosphere and then stored at −80° C. until analysis.
For mass spectrometry-based metabolite profiling analyses plasma samples were extracted and a polar and a non-polar (lipid) fraction was obtained. For GC-MS analysis, the non-polar fraction was treated with methanol under acidic conditions to yield the fatty acid methyl esters. Both fractions were further derivatised with O-methyl-hydroxyamine hydrochloride and pyridine to convert Oxogroups to O-methyloximes and subsequently with a silylating agent before analysis. In LC-MS analysis, both fractions were reconstituted in appropriate solvent mixtures. HPLC was performed by gradient elution on reversed phase separation columns. Mass spectrometric detection which allows target and high sensitivity MRM (Multiple Reaction Monitoring) profiling in parallel to a full screen analysis was applied as described in WO2003073464.
Steroids and their metabolites were measured by online SPE-LC-MS (Solid phase extraction-LC-MS).
Following comprehensive analytical validation steps, the data for each analyte were normalized against data from pool samples. These samples were run in parallel through the whole process to account for process variability. The significance of treatment group values specific for sex, treatmentduration and metabolite was determined by comparing means of the treated groups to the means of the respective untreated control groups using WELCH-test and quantified with treatment ratios versus control and p-values.
The identification of the most important biomarkers per toxicity pattern was done by a ranking of the analytes in the tables below. Therefore the metabolic changes in reference treatments of a given pattern (shown in the table) were compared with changes of the same metabolite in other unrelated treatments. […] The maximum absolute value of the respective TVALUE was taken to indicate the most important metabolite for the pattern.

SMILES: CN(N=O)C(=O)N[C@H]1C(O)O[C@H](CO)[C@@H](O)[C@@H]1O (mixture of isomers) [Streptozotocin]
- Isopalmitic acid (C16:0) (f7, female rats): 0.99
- Alanine (f7, female rats): 0.79
- Arginine (f7, female rats): 0.78
- Ketoleucine (f7, female rats): 0.85
- Lactate (f7, female rats): 0.77
- Proline (f7, female rats): 0.81
- Serine (f7, female rats): 0.88
- Valine (f7, female rats): 0.77
- Isopalmitic acid (C16:0) (f14, female rats): 1.12 *
- Alanine (f14, female rats): 0.91
- Arginine (f14, female rats): 0.88
- Ketoleucine (f14, female rats): 0.9
- Lactate (f14, female rats): 0.83
- Proline (f14, female rats): 0.83
- Serine (f14, female rats): 0.83
- Valine (f14, female rats): 0.85
- Isopalmitic acid (C16:0) (f28, female rats): 1.3 *
- Alanine (f28, female rats): 0.87
- Arginine (f28, female rats): 1.03
- Ketoleucine (f28, female rats): 0.87
- Lactate (f28, female rats): 0.57
- Proline (f28, female rats): 0.9
- Serine (f28, female rats): 0.98
- Valine (f28, female rats): 0.98

SMILES: C=CCN1C[C@H](C(=O)N(CCCN(C)C)C(=O)NCC)C[C@@H]2c3cccc4[nH]cc(c34)C[C@H]21 [Cabergoline]
- 3-O-Methylsphingosine (d18:1) (f7): 0.68 *
- 5-O-Methylsphingosine (d18:1) (f7): 0.66 *
- 16-Methylheptadecanoic acid (f7): 0.57 *
- Arachidonic acid (C20:cis[5,8,11,14]4) (f7): 0.71 *
- Ceramide (d18:1, C24:1) (f7): 0.57 *
- Ceramide (d18:1,C24:0) (f7): 0.53 *
- Cholesterol (f7): 0.72 *
- Cholesterolester No 01 (f7): 0.84^
- Dodecanol (f7): 0.84 *
- Elaidic acid (C18:trans[9]1) (f7): 0.66 *
- Galactose, lipid fraction (f7): 0.79^
- Glycerol phosphate, lipid fraction (f7): 0.72 *
- Heptadecanoic acid (C17:0) (f7): 0.85^
- Lignoceric acid (C24:0) (f7): 0.54 *
- Lysophosphatidylcholine (C17:0) (f7): 0.83 *
- Phosphate, lipid fraction (f7): 0.73 *
- Phosphatidylcholine (C18:0, C20:3) (f7): 0.85 *
- Phytosphingosine (f7): 0.64 *
- Sphingomyelin (d18:1, C16:0) (f7): 0.94^
- Sphingomyelin (d18:1,C24:0) (f7): 0.84 *
- Sphingomyelin (d18:2, C16:0) (f7): 0.67 *
- Sphingomyelin (d18:2,C18:0) (f7): 0.89 *
- Stearic acid (C18:0) (f7): 0.79 *
- TAG No 07 (f7): 0.91^
- Tricosanoic acid (C23:0) (f7): 0.71 *
- alpha-Tocopherol (f7): 0.82^
- beta-Sitosterol (f7): 0.46 *
- erythro-Sphingosine (d18:1) (f7): 0.66 *
- myo-Inositol, lipid fraction (f7): 0.87 *
- myo-Inositol-2-phosphate, lipid fraction (f7): 0.61 *
- threo-Sphingosine (d18:1) (f7): 0.75 *
- 3-O-Methylsphingosine (d18:1) (f14): 0.36 *
- 5-O-Methylsphingosine (d18:1) (f14): 0.34 *
- 16-Methylheptadecanoic acid (f14): 0.59 *
- Arachidonic acid (C20:cis[5,8,11,14]4) (f14): 0.32 *
- Ceramide (d18:1, C24:1) (f14): 0.6 *
- Ceramide (d18:1,C24:0) (f14): 0.57 *
- Cholesterol (f14): 0.36 *
- Cholesterolester No 01 (f14): 0.79 *
- Dodecanol (f14): 0.44 *
- Elaidic acid (C18:trans[9]1) (f14): 0.5 *
- Galactose, lipid fraction (f14): 0.48 *
- Glycerol phosphate, lipid fraction (f14): 0.34 *
- Heptadecanoic acid (C17:0) (f14): 0.61 *
- Lignoceric acid (C24:0) (f14): 0.33 *
- Lysophosphatidylcholine (C17:0) (f14): 0.72 *
- Phosphate, lipid fraction (f14): 0.57 *
- Phosphatidylcholine (C18:0, C20:3) (f14): 0.72 *
- Phytosphingosine (f14): 0.55 *
- Sphingomyelin (d18:1, C16:0) (f14): 0.79 *
- Sphingomyelin (d18:1,C24:0) (f14): 0.62 *
- Sphingomyelin (d18:2, C16:0) (f14): 0.58 *
- Sphingomyelin (d18:2,C18:0) (f14): 0.67 *
- Stearic acid (C18:0) (f14): 0.42 *
- TAG No 07 (f14): 0.73 *
- Tricosanoic acid (C23:0) (f14): 0.55 *
- alpha-Tocopherol (f14): 0.4 *
- beta-Sitosterol (f14): 0.3 *
- erythro-Sphingosine (d18:1) (f14): 0.37 *
- myo-Inositol, lipid fraction (f14): 0.48 *
- myo-Inositol-2-phosphate, lipid fraction (f14): 0.31 *
- threo-Sphingosine (d18:1) (f14): 0.44 *
- 3-O-Methylsphingosine (d18:1) (f28): 0.11 *
- 5-O-Methylsphingosine (d18:1) (f28): 0.13 *
- 16-Methylheptadecanoic acid (f28): 0.28 *
- Arachidonic acid (C20:cis[5,8,11,14]4) (f28): 0.16 *
- Ceramide (d18:1, C24:1) (f28): 0.39 *
- Ceramide (d18:1,C24:0) (f28): 0.36 *
- Cholesterol (f28): 0.16 *
- Cholesterolester No 01 (f28): 0.56 *
- Dodecanol (f28): 0.27 *
- Elaidic acid (C18:trans[9]1) (f28): 0.33 *
- Galactose, lipid fraction (f28): 0.24 *
- Glycerol phosphate, lipid fraction (f28): 0.19 *
- Heptadecanoic acid (C17:0) (f28): 0.47 *
- Lignoceric acid (C24:0) (f28): 0.15 *
- Lysophosphatidylcholine (C17:0) (f28): 0.57 *
- Phosphate, lipid fraction (f28): 0.36 *
- Phosphatidylcholine (C18:0, C20:3) (f28): 0.59 *
- Phytosphingosine (f28): 0.34 *
- Sphingomyelin (d18:1, C16:0) (f28): 0.51 *
- Sphingomyelin (d18:1,C24:0) (f28): 0.36 *
- Sphingomyelin (d18:2, C16:0) (f28): 0.33 *
- Sphingomyelin (d18:2,C18:0) (f28): 0.3 *
- Stearic acid (C18:0) (f28): 0.28 *
- TAG No 07 (f28): 0.4 *
- Tricosanoic acid (C23:0) (f28): 0.23 *
- alpha-Tocopherol (f28): 0.16 *
- beta-Sitosterol (f28): 0.13 *
- erythro-Sphingosine (d18:1) (f28): 0.13 *
- myo-Inositol, lipid fraction (f28): 0.23 *
- myo-Inositol-2-phosphate, lipid fraction (f28): 0.08 *
- threo-Sphingosine (d18:1) (f28): 0.24 *

SMILES: CCOC(=O)C(C)(C)Oc1ccc(Cl)cc1 [Clofibrate]
- Isopalmitic acid (C16:0) (f7, female rats): 0.83 *
- Alanine (f7, female rats): 0.63
- Arginine (f7, female rats): 0.74
- Ketoleucine (f7, female rats): 1.04
- Lactate (f7, female rats): 1.22
- Proline (f7, female rats): 0.81
- Serine (f7, female rats): 0.85
- Valine (f7, female rats): 0.91
- Isopalmitic acid (C16:0) (f14, female rats): 0.84
- Alanine (f14, female rats): 0.72
- Arginine (f14, female rats): 0.93
- Ketoleucine (f14, female rats): 0.94
- Lactate (f14, female rats): 0.66
- Proline (f14, female rats): 0.88
- Serine (f14, female rats): 0.98
- Valine (f14, female rats): 0.94
- Isopalmitic acid (C16:0) (f28, female rats): 1.53 *
- Alanine (f28, female rats): 0.84
- Arginine (f28, female rats): 0.92
- Ketoleucine (f28, female rats): 0.88
- Lactate (f28, female rats): 0.83
- Proline (f28, female rats): 0.85
- Serine (f28, female rats): 1.03
- Valine (f28, female rats): 1.14
